The values below come from patent US9763910B1, “Combination therapy for treating cancer” (Huanggang Normal University, priority 2016, dated 2017).

Data set [1] concerns CL1-5 human lung cancer cells engrafted in BALB/c nude mice. The experiment in a line: Tumor growth in CL1-5 cell-engrafted BALB/c nude mice. The following applies: CL1-5 engrafted nude mice.
Procedure: The study was carried out as follows: inoculating BALB/c mice with of the CL1-5 human lung cancer cells; dividing the mice into 4 groups 7 days after inoculation with 8 mice in each group and treating them once every two days for 14 days respectively with (i) 0.4 ml of 10% DMSO, (ii) 0.4 ml of 10% DMSO containing 25 μmol of docetaxel, (iii) 0.4 ml of 10% DMSO containing 15.5 μmol of 5-demethylnobiletin, and (iv) 0.4 ml of 10% DMSO containing 25 μmol of docetaxel and 15.5 μmol of 5-demethylnobiletin; growing mice without any treatment for another 14 days; measuring tumor sizes after animal sacrificing.
The experimental BALB/c nude mice were divided into 4 groups, with 8 in each group. Each mouse was inoculated with 0.1 ml of the CL1-5 human lung cancer cells at a density of 10^6 cells/ml. 7 days after of the inoculation, the 4 groups of mice were infused respectively with (i) 27 μl of 10% DMSO; (ii) 25 μmol of docetaxel in a 10% DMSO solution (iii) 15.5 μmol of 5-demethylnobiletin in a 10% DMSO solution; and (iv) 25 μmol of docetaxel and 15.5 μmol of 5-demethylnobiletin in a 10% DMSO solution at a frequency of once every 2 days for 14 days. […]
[1−(fa)2], (fa)1 and (fa)2 are inhibition rates of drug1 and drug2, respectively, and (fa)1,2 is the calculated inhibition rate of combining drug1 and drug2, which is also a theoretical additive effect. […]
Data set [2] is classed as in vivo, mouse. The protocol:
BALB/c nude mice were divided into two groups, with 8 mice in each group. […] Then, liver, spleen, and kidney weights of the mice in each group were measured and blood was collected. Following at RT for 1 h, the blood was centrifuged at 3000 rpm for 10 min at 4° C. to collect serum before stored at −80° C. Clinical chemistry measurements, e.g., levels of AST, ALT, triglyceride (TG), and total cholesterol (TC), were measured by an automatic biochemical analyzer.

For another data set, the system named is CL1-5 lung cancer cells. Nature of the data set: Growth inhibition of CL1-5 lung cancer cells (cell viability by absorbance). The settings on record: Homo sapiens, CL1-5, read-out: IC50 rate of docetaxel for the CL1-5 cells.
[3] abbreviates: 15.5 μmol once every 2 days for 14 days, sacrificed after another 14 days.
The mark [4] stands for this setting: serum, 15.5 μmol once every 2 days for 14 days.

SMILES strings stand for the structures.

Procedure for CL1-5 lung cancer cells: The CL1-5 cells were cultured in RPMI 1640 medium containing 100 U/ml penicillin, 100 μg/ml streptomycin, and 10% fetal bovine serum at a temperature of 37° C. and with carbon dioxide at a concentration of 5%. The cultured cells were divided into 8 treatment groups. 4 groups were treated only with docetaxel at different concentrations: 3.125, 6.25, 12.5, and 25.0 nmol of docetaxel per liter of the medium in 100 μl of 10% DMSO solution.

On to `COc1ccc(-c2cc(=O)c3c(O)c(OC)c(OC)c(OC)c3o2)cc1OC` [5-Hydroxy-6,7,8,3′,4′-pentamethoxyflavone], for which the “experimental inhibition rate (fa) of tumor growth” value in data set [1] was 38%. In data set [2] (setting [3]), the Kidney weight worked out at 0.90 ± 0.06 g, the Liver weight turned out to be 3.93 ± 0.28 g and the Spleen weight stood at 0.21 ± 0.04 g. The “difference between control group and treatment group in organ weights and clinical chemistry” value in data set [2] (Table 1 parameters) was “no significant difference”. In data set [2] (setting [4]), this compound displayed a GOT of 91.2 ± 9.8 Unit/L, a GPT of 22.8 ± 5.2 Unit/L, a TC of 77.1 ± 4.9 mg/dL and a TG of 109.5 ± 36.9 mg/dL.
What is called IC50 is the midpoint of a concentration-inhibition curve. For `CC(=O)O[C@@]12CO[C@@H]1C[C@H](O)[C@@]1(C)C(=O)[C@H](O)C3=C(C)[C@@H](OC(=O)[C@H](O)[C@@H](NC(=O)OC(C)(C)C)c4ccccc4)C[C@@](O)([C@@H](OC(=O)c4ccccc4)[C@H]21)C3(C)C` [docetaxel, 1,7β,10β-trihydroxy-9-oxo-5β,20-epoxytax-11-ene-2α,4,13α-triyl 4-acetate 2-benzoate 13-{(2R,3S)-3-[(tert-butoxycarbonyl)amino]-2-hydroxy-3-phenylpropanoate}, reference compound], the “experimental inhibition rate (fa) of tumor growth” value in data set [1] worked out at 47.6%. Further, the IC50 in the data set with CL1-5 lung cancer cells worked out at 28.4 nM.
